{"source": "paper PMC8900464", "about": "(Journal of medicinal chemistry, 2022)", "key": {"[1]": {"test_system": "P-AKT (S473), P-PRAS40 (T246), P-S6 (S240/244)", "test": "Immunoblotting of P-AKT and downstream signaling in BT474 cells", "assay_type": "cell-based", "conditions": "24 h"}, "BT474 cells": {"test_system": "BT474 cells", "test": "Cell colony formation assay", "assay_type": "cell-based", "conditions": "14 days"}, "T-AKT [2]": {"test_system": "T-AKT", "test": "T-AKT degradation in PC3 cells", "assay_type": "cell-based, human"}, "T-AKT [3]": {"test_system": "T-AKT", "test": "Competition", "assay_type": "cell-based, human", "conditions": "PC3 cells, then compound 24 h"}, "PC-3 xenografts [4]": {"test_system": "PC-3 xenografts", "assay_type": "in vivo", "conditions": "PC3 xenograft mice, 75 mg/kg once daily IP, 22 days"}, "T-AKT, P-AKT, P-PRAS40": {"test_system": "T-AKT, P-AKT, P-PRAS40", "test": "Western blotting analysis of xenograft tumor samples", "assay_type": "in vivo, mice", "conditions": "PC3 xenograft, 75 mg/kg once daily IP, end of study"}, "P-PRAS40, P-S6": {"test_system": "P-PRAS40, P-S6", "test": "Downstream signaling in PC3 cells", "conditions": "for downstream signaling inhibition after washout: 1 μM for 24 h, then washout"}, "total AKT (T-AKT)": {"test_system": "total AKT (T-AKT)", "test": "Immunoblotting of total AKT in BT474 cells", "assay_type": "cell-based", "conditions": "BT474 cells, 1 μM, 24 h, western blot"}, "PC3 cells": {"test_system": "PC3 cells", "test": "Cell proliferation assay", "assay_type": "cell-based, human", "conditions": "5 days"}, "MDA-MB-468 cells": {"test_system": "MDA-MB-468 cells", "test": "Cell proliferation assay", "assay_type": "cell-based", "conditions": "5 days"}, "PC-3 xenografts [5]": {"test_system": "PC-3 xenografts", "conditions": "PC3 xenograft, 75 mg/kg once daily IP; cited from earlier work"}, "[6]": {"conditions": "BT474 cells, 1 μM, western blot"}}, "note": "“Also recorded” adds a separate entry of the source."}
{"molecule": "Cc1ncsc1-c1ccc(CNC(=O)[C@@H]2C[C@@H](O)CN2C(=O)[C@@H](NC(=O)CCCCCCCCCCC(=O)N2CCN(CC[C@H](NC(=O)C3(N)CCN(c4ncnc5[nH]ccc45)CC3)c3ccc(Cl)cc3)CC2)C(C)(C)C)cc1", "note": "[Compound 20, 4-Amino-N-((S)-1-(4-chlorophenyl)-3-(4-(12-(((S)-1-((2S,4R)-4-hydroxy-2-((4-(4-methylthiazol-5-yl)benzyl)carbamoyl)pyrrolidin-1-yl)-3,3-dimethyl-1-oxobutan-2-yl)amino)-12-oxododecanoyl)-piperazin-1-yl)propyl)-1-(7H-pyrrolo[2,3-d]pyrimidin-4-yl)-piperidine-4-carboxamide]", "values": [{"measurement": "downstream signaling inhibition", "setting": "[1]; BT474 cells, 1, 5 and 10 μM, P-PRAS40 and P-S6, western blot", "result": "slightly enhanced downstream signaling inhibition compared to 19"}, {"measurement": "inhibition of colony formation", "setting": "BT474 cells", "result": "highly effective in inhibiting colony formation; also recorded: effectively inhibited colony formation"}, {"measurement": "time to complete depletion of T-AKT", "setting": "T-AKT [2]; 1 μM", "result": "≤ 8", "unit": "h"}, {"measurement": "T-AKT level after washout", "setting": "T-AKT [2]; 1 μM for 24 h, then washout, 48 h post-treatment", "result": "partially recovered"}, {"measurement": "duration of sustained AKT degradation post treatment", "setting": "T-AKT [2]; washout experiments", "result": "1 to 2", "unit": "days"}, {"measurement": "AKT degradation after pretreatment with MLN4924 or MG-132", "setting": "T-AKT [3]; 2 h pretreatment", "result": "significantly diminished the AKT degradation effect"}, {"measurement": "AKT degradation after pretreatment with excess AZD5363", "setting": "T-AKT [3]; AZD5363 (1 μM) 2 h", "result": "rescued the AKT protein level"}, {"measurement": "AKT degradation after pretreatment with excess VHL ligand VHL-2", "setting": "T-AKT [3]; VHL-2 (1 μM) 2 h", "result": "restored the AKT protein level effectively"}, {"measurement": "tolerability", "setting": "PC-3 xenografts [4]", "result": "well tolerated"}, {"measurement": "T-AKT and P-AKT in tumor samples", "setting": "T-AKT, P-AKT, P-PRAS40", "result": "substantially degraded T-AKT and P-AKT"}, {"measurement": "downstream signaling (PRAS40 phosphorylation) in tumor samples", "setting": "T-AKT, P-AKT, P-PRAS40", "result": "effectively inhibited the downstream signaling"}, {"measurement": "downstream signaling inhibition after washout", "setting": "P-PRAS40, P-S6; 48 h post-treatment", "result": "partially recovered"}]}
{"molecule": "4-Amino-N-[(1S)-1-(4-chlorophenyl)-3-hydroxypropyl]-1-(7H-pyrrolo[2,3-d]pyrimidin-4-yl)piperidine-4-carboxamide [AZD5363, reference compound]", "values": [{"measurement": "T-AKT protein level", "setting": "total AKT (T-AKT)", "result": "downregulated the T-AKT protein level"}, {"measurement": "downstream signaling (PRAS40 and S6 phosphorylation)", "setting": "[1]; [6]", "result": "effectively inhibited the phosphorylation of downstream PRAS40 and ribosomal protein S6"}, {"measurement": "phosphorylated AKT level", "setting": "[1]; [6]", "result": "paradoxically upregulated the phosphorylated AKT level"}, {"measurement": "AKT protein level", "setting": "T-AKT [2]; 1 μM, 24 h", "result": "did not significantly reduce the AKT protein level"}, {"measurement": "GI50", "setting": "PC3 cells", "result": "6.5 ± 2.9", "unit": "µM"}, {"measurement": "GI50", "setting": "MDA-MB-468 cells", "result": "3.8 ± 1.6", "unit": "µM"}, {"measurement": "tumor growth inhibition", "setting": "PC-3 xenografts [5]", "result": 75, "unit": "%"}, {"measurement": "downstream signaling inhibition after washout", "setting": "P-PRAS40, P-S6; 24 h post-treatment", "result": "near fully recovered"}, {"measurement": "PRAS40 and S6 phosphorylation", "setting": "P-PRAS40, P-S6; 1 μM, 24 h", "result": "effectively inhibited PRAS40 and S6 phosphorylation"}]}
